Measurements reported in patent US12473533B2, “Gene targets for T-cell-based immunotherapy” (The Regents of the University of California, priority 2018, dated 2025).

These molecules were tested on CD8+ T cells (assay: Dose titration of CGS-21680 on T cell proliferation (CFSE)). Conditions: CFSE-labeled CD8+ T cells, two donors.
Type: cell-based, human
Method: FIG. 12A-E. Screen for Resistance to an Immunosuppressive Signal in Primary T Cells Using SLICE, Related to FIG. 6. Section A: a dose titration of adenosine receptor agonist CGS-21680 for the optimal effects on T cell proliferation inhibition identified 20 μM as sufficiently suppressive. Shown are representative CFSE profiles for varying concentrations of CGS-21680, as labeled at the top of each panel. Data is for CFSE-labeled CD8^+ T cells from two human donors. Section C: Comparison of the overlapping top 25 hits for the two screen conditions (CGS-21680 and vehicle). We noted that while many hits from the vehicle screen also boosted proliferation in the presence of the immunosuppressive adenosine agonist (trending along diagonal), ADORA2A and FAM105A sgRNAs were enriched selectively in the setting of the adenosine agonist. ADORA2A and FAM105A were the only hits in the top 0.1% by LFC in the CGS-21680 treated condition and also in the top 0.1% by LFC difference between the CGS-21680 and the vehicle GW screen conditions. Section D: Paralogs FAM105A and OTULIN (FAM105B) are 40% homologous and are encoded at neighboring sites on chromosome 5. […] A non-synonymous single nucleotide polymorphism (SNP) in FAM105A has been linked to allergic disease by genome wide association studies (Ferreira et al., 2017). […]
In the case of CCNC(=O)[C@H]1O[C@@H](n2cnc3c(N)nc(NCCc4ccc(CCC(=O)O)cc4)nc32)[C@H](O)[C@@H]1O [CGS-21680], the “concentration sufficiently suppressive of T cell proliferation” value is reported as 20 µM.

These molecules were tested on primary human T cells (assay: Genome-wide SLICE pooled CRISPR screen: CFSE-sorted proliferation after TCR stimulation). Conditions: log2 fold-change of sgRNA, dividing over non-dividing cells; positive hits from GW screen.
Type: cell-based
Description: To take full advantage of this platform, we scaled-up from the targeted pilot screen to genome-wide (GW) scale (Doench et al., 2016), transducing a library of 77,441 sgRNAs (19,114 genes) into T cells from two healthy donors. After confirming successful transduction of these primary human T cells (FIG. 8,A-B), the cells were re-stimulated and then FACS sorted into non-proliferating and highly-proliferating populations based on CFSE levels (FIG. 8C and Experimental Procedures). MAGeCK software (Li et al., 2014) was used to systematically identify genes that are positively or negatively selected in the proliferating population of T cells. Top positive and negative regulators from the pilot screen were confirmed in both biological replicates of the GW screen along with numerous other hits (FIG. 2A, B). To hone the list of top candidates, we performed an independent secondary screen in cells from two additional human blood donors. The results were well correlated between the primary and secondary screens (FIG. 2C). Furthermore, integrated analysis of the two independent screens performed on a total of four human blood donors provided improved power for target discovery, particularly for negative regulators of T cell proliferation (FIG. 8D). To confirm that hits are in fact dependent on TCR stimulation, we performed GW screens with increasing levels of TCR stimulation. […] The observed dose-response confirmed that the majority of the screen hits are dependent on the TCR stimulus and serve to tune resulting proliferative responses. Taken together these screens identified dozens of genetic perturbations that positively and negatively modulate T cell proliferation.
24 hours post stimulation, lentivirus was added directly to cultured T cells at a 1:300 v/v ratio and gently mixed by tilting. Following 24 hours, cells were collected, pelleted, and resuspended in Lonza electroporation buffer P3 (Lonza, Cat #V4XP-3032) at 20e6 cells/100 μl. Next, Cas9 protein (MacroLab, Berkeley, 40 μM stock) was added to cell suspension at 1:10 v/v ratio. Cells were electroporated at 20e6 cells per cuvette using the pulse code EH115 (Lonza, cat #VVPA-1002). The total number of cells for electroporation was scaled as required. Immediately after electroporation, 1 mL of pre-warmed media was added to each cuvette and cuvettes were placed at 37 degrees for 20 minutes. Cells were then transferred to culture vessels in X-Vivo media containing 50 U/ml IL-2 at 1e6 cells/ml in appropriate tissue culture vessels. Cells were expanded every two days, adding fresh media with IL-2 at 50 U/ml and maintaining the cell density at 1e6 cells/ml.
Cultured cells were collected, spun, washed with PBS, and then resuspended at 1-10 million cells/ml in PBS. CFSE (Biolegend, Cat #423801) was prepared per the manufacturer's protocol to make a 5 mM stock solution in DMSO. This stock solution was diluted 1:1000 in PBS for a 5 μM working solution, and then added in a 1:1 v/v ratio to cell suspension. After mixing, cells were incubated for 5 minutes in the dark at room temperature. The stain was then quenched with a volume of media that was at least 5× the stain volume (e.g. 2 ml+10 ml), and incubated for one minute at room temperature in the dark. Cells were then spun down and resuspended in media prior to restimulation.
PBMCs from multiple human healthy human donors were isolated from TRIMA residuals (see methods). TRIMA residuals were purchased from Blood Centers of the Pacific. After CD8 T cells isolation as above (Day 0), cells were rested in X-Vivo media overnight and then stimulated with plate-bound anti-human CD3/CD28 and IL-2 at 50 U/mL the following day (Day 1). 24 hours after stimulation (Day 2), cells were transduced with concentrated lentivirus encoding the pooled sgRNA library (see methods). […] after transduction (Day 3), cells were electroporated with CAS9 protein (methods). […]
For “CTCTCCTCAGTACCACAGCA (listed as DNA, chemistry not fully specified) [SEQ ID NO: 19, sgRNA targeting DGKZ]”, the “LFC (~effect magnitude)” value was 0.6587. “CTTGGCGTCCGTGAAGATGG (listed as DNA, chemistry not fully specified) [SEQ ID NO: 33, sgRNA targeting TCEB2]” was tested, and the “LFC (~effect magnitude)” value was 0.6135. For “GAACGCGCTGAGAGTCCGTG (listed as DNA, chemistry not fully specified) [SEQ ID NO: 3, sgRNA targeting AGO1]”, the “LFC (~effect magnitude)” value was 0.8318. “GAATAAGATGTTCTACGCCG (listed as DNA, chemistry not fully specified) [SEQ ID NO: 17, sgRNA targeting DGKZ]” was tested, and the “LFC (~effect magnitude)” value was 0.6282. “GACTCACTGAGACAAAGTAG (listed as DNA, chemistry not fully specified) [SEQ ID NO: 36, sgRNA targeting TMEM222]” was tested, and the “LFC (~effect magnitude)” value was 0.8727. In the case of “GAGAACCTCGGAACATACGG (listed as DNA, chemistry not fully specified) [SEQ ID NO: 28, sgRNA targeting SMARCB1]”, the “LFC (~effect magnitude)” value is reported as 0.6271. With “GAGCAGCGGCTGTACAAGGT (listed as DNA, chemistry not fully specified) [SEQ ID NO: 32, sgRNA targeting TCEB2]” the “LFC (~effect magnitude)” value was 1.0955. For “GCAGGAAGACCGGCACGAAG (listed as DNA, chemistry not fully specified) [SEQ ID NO: 11, sgRNA targeting CD8A]”, the “LFC (~effect magnitude)” value was 0.6365. With “GGGCAAGTACGAGTGGCAAG (chemistry not given here) [SEQ ID NO: 13, sgRNA targeting CDKN1B]” the “LFC (~effect magnitude)” value was 0.9886. In the case of “GGGCCCCCAGTAGAATCCGC (listed as DNA, chemistry not fully specified) [SEQ ID NO: 29, sgRNA targeting SOCS1]”, the “LFC (~effect magnitude)” value is reported as 1.2551. In the case of “TATGCCATGAGTGCTCAGAG (listed as DNA, chemistry not fully specified) [SEQ ID NO: 37, sgRNA targeting TNFAIP3]”, the “LFC (~effect magnitude)” value is reported as 0.651. In the case of “TGAGGAGTACAAGCACCGCA (listed as DNA, chemistry not fully specified) [SEQ ID NO: 35, sgRNA targeting TMEM222]”, the “LFC (~effect magnitude)” value is reported as 1.3341. For “TGCACAGAACTATCGTACCA (listed as DNA, chemistry not fully specified) [SEQ ID NO: 5, sgRNA targeting CBLB]”, the “LFC (~effect magnitude)” value was 1.9597. In the case of “TGGACCACGAAGAGTTAACC (chemistry not given here) [SEQ ID NO: 14, sgRNA targeting CDKN1B]”, the “LFC (~effect magnitude)” value is reported as 0.8112. With “TGTGGGATGTCGACTCCTAG (chemistry not given here) [SEQ ID NO: 7, sgRNA targeting CBLB]” the “LFC (~effect magnitude)” value was 0.7876. In the case of “TTAGCATCAAGGCATGCCAT (listed as DNA, chemistry not fully specified) [SEQ ID NO: 26, sgRNA targeting RASA2]”, the “LFC (~effect magnitude)” value is reported as 0.7258. In the case of “TTCCGCAAAATAGAGCCCCA (listed as DNA, chemistry not fully specified) [SEQ ID NO: 6, sgRNA targeting CBLB]”, the “LFC (~effect magnitude)” value is reported as 1.5917.
